# Read-outs that look alike come from different tables or passages of the source.
# Experiments:
# [1] = Plasma pharmacokinetics in female BALB/c mice (ip and po); format: in vivo, mouse; settings: 50 mg/kg; for bioavailability / AUC / Cmax / half-life: female, BALB/c, mice; for bioavailability / AUC / Cmax / half-life / Tmax: mouse, plasma; for bioavailability: oral, read-out: Relative Bioavailability, Frel (po/ip); for Tmax / plasma concentrations quantifiable till: female BALB/c mice
# Experimental: To evaluate the plasma pharmacokinetics of selected compounds, a group of eighteen female mice were administered divided into two groups; Group 1 (intraperitoneal (i.p.)) and Group 2 (oral administration (p.o.)) with compound 21 or compound 37 solution formulation at a dose of 50 mg/kg by both the routes in 5% NMP, 5% Solutol and 90% Normal saline. Blood samples (approximately […]) were collected from retro orbital plexus of each mouse under light isoflurane anesthesia such that the samples were obtained at 0.083, 0.25, 0.5, 1, 2, 4, 8, 12 and 24 hours (i.p.); and pre-dose, 0.25, 0.5, 1, 2, 4, 8, 12 and 24 hour (p.o.). The blood samples were collected from a set of three mice at each time point in labeled micro centrifuge tube containing K2EDTA as anticoagulant. Plasma samples were separated by centrifugation at 4000 rpm for 10 min and stored below −70° C. until bioanalysis. After collection of blood sample, animals were humanely euthanized by carbon dioxide asphyxiation to collect liver and heart from Group 1 and Group 2 at 1, 8 and 24 hours. The collected tissues were rinsed in PBS and were homogenized with cold phosphate buffer saline (pH 7.4) of nine times the weight of liver and two times the weight of heart tissue and stored below −70° C. until bio-analysis. Total volume was ten and three times the tissue weights of liver and heart, respectively. All samples were processed for analysis by protein precipitation using acetonitrile and analyzed with fit-for-purpose LC-MS/MS method (LLOQ: 1.01 ng/mL for plasma; 20.20 ng/g for liver and 6.06 ng/g for heart tissue). […] Exemplary results for compounds 21 (2015-FoleyC-021) and 37 (2015-FoleyC-037) are shown above in Table 2.
# [2] = Parallel artificial membrane permeability assay (PAMPA), commercial kit; format: in vitro ADME; settings: PBS, room temperature, read-out: Parallel artificial membrane permeability assay (PAMPA) Permeability (log Pe [cm/s]) (converted)
# Experimental: To evaluate the Parallel Artificial Membrane Permeability Assay (PAMPA) of selected compounds, an assessment of permeability was done using a commercial PAMPA kit. Selected compounds were evaluated over a range of concentrations by 300 μl of PBS containing the compound to the bottom donor plate. Selected compounds were from DMSO stocks and the final DMSO concentration in the donor wells was one percent. 200 μl of blank PBS was added to the top receiver plate. The plates were allowed to incubate at room temperature. After 5 hours, aliquots were taken from the donor and receiver plates and the concentration of drug was determined. Compound permeability was calculated using the equation [formula] where Pe is expressed in units of cm/s, CA(t) is drug concentration in the acceptor at time t, VD is donor well volume, VA is acceptor well volume, A is the area of the filter (0.3 cm^2), t is time in seconds, and Ceq=[CD(t)*VD+CA(t)*VA]/(VD+VA).
# [3] = Caco-2 bi-directional permeability; format: in vitro ADME; settings: human, Caco-2, pH 7.4
# Experimental: To evaluate the bi-directional Caco-2 permeability of compounds 21 and 37, Caco-2 cells were grown in Dulbecco's Modified Eagle Medium (DMEM) (20% Fetal bovine serum (FBS)) until 85-90% confluence. After attaining required confluence, cells were trypsinized and seeded into 24 well millcell plates at a density of 0.6×10^5 cells/insert. The plates were maintained for 21 days at 37° C. in CO2 incubator with change of medium every alternative day. Monolayer integrity was monitored by measuring Trans-epithelial electrical resistance (TEER) from day 15. Caco-2 cell monolayer was washed twice with HBSS and incubated for 30 min in CO2 incubator. TEER values were measured and wells showing TEER values above 230 ohms·cm2 were taken for experiments. Bi-directional permeability study was initiated by adding appropriate volume of HBSS containing the test compounds or probe P-gp substrate loperamide to either the apical (A-B transport) or basal side (B-A transport) of the monolayer. At selected time points (0, 15, 30, 60 and 90 mins) an aliquot of 50 μL was collected from the receiver compartment for determination of test compound concentrations. The volume withdrawn was replaced immediately with plain HBSS buffer (pH 7.4). TEER was measure at the end of the experiment to test the post experiment monolayer integrity. […]
# [4] = Cytotoxicity screening in MRC5 (CellTiter Glo, fluorescence microscopy); format: cell-based; settings: human, MRC5 cells
# Experimental: To evaluate the cytotoxicity of selected compounds, cell viability assays (CellTiter Glo) were conducted. Each compound (compound 21 or compound 37) was plated in triplicate starting at their respective stock concentration. They were serially diluted column-wise for ten 3× dilutions using DMSO as the diluent. Staurosporine was used as positive control for DRC (dose response curve), and was plated starting at 1.25 mM. This plate was used as a source plate to make the assay plates by transferring 0.1 μl into 25 μl assay volume to reach the right working concentration for each compound. HepG2 and MRC5 were plated at a density of 1500 cells/25 μl in well in the assay plate and allowed to settle overnight. 0.1 μL of compounds was then transferred from the source plate, into the cell assay plates. The cells were left to incubate with the compounds for 48 hours, after which, 25 μL of Promega Cell Titer-Glo was added to each well, and allowed to incubate at room temperature with shaking for 20 minutes. RLU's (Relative Light Units) for each well were then recorded on a BioTek Synergy NEO. Fluorescence microscopy was also used to evaluate the cytotoxicity of selected compounds. Cells were plated at a density of 1500 cells/25 μl in well in a 384 wells plate the day before incubation with the drugs. The following day, 0.1 μl of the source plate are added to the assay plate. Then, 25 μl of a fluorophores mixture containing Hoechst 33342, Syto17 diluted in Eagle's Minimum Essential Medium (EMEM) was added to each well. Plates are read after 48 hours of incubation in the ImageXpress instrument (Molecular Devices) using the appropriate filters.
# [5] = ip, read-out: PK (ip, 50 mg/kg) Area under the curve (AUC)
# [6] = ip, read-out: PK (ip, 50 mg/kg) Cmax
# [7] = ip, read-out: PK (ip, 50 mg/kg) t1/2 (converted)
# [8] = po, read-out: PK (po, 50 mg/kg) AUC
# [9] = po, read-out: PK (po, 50 mg/kg) Cmax
# [10] = po, read-out: PK (po, 50 mg/kg) t1/2 (converted)
# [11] = ip, single intraperitoneal dose
# [12] = read-out: MRC5 IC50, Cell Count
# [13] = read-out: MRC5 IC50, Cellular ATP
# [14] = read-out: MRC5 IC50, Membrane Integrity
bioavailability [1] [%],"AUC [1, 5] [µM·h]","Cmax [1, 6] [µM]","half-life [1, 7] [h]","AUC [1, 8] [µM·h]","Cmax [1, 9] [µM]","half-life [1, 10] [h]","Tmax [1, 11] [h]",Tmax ([1]; single oral dose) [h],plasma concentrations quantifiable till ([1]; single intraperitoneal dose) [h],plasma concentrations quantifiable till ([1]; single oral dose) [h],Papp at 5 h [2] [×10⁻⁶ cm/s],efflux ratio at 90 min [3],Structure (SMILES),"IC50 at 48 h [4, 12] [µM]","IC50 at 48 h [4, 13] [µM]","IC50 at 48 h [4, 14] [µM]"
48,50.1,19.8,2.8,24.3,11.8,3.5,0.25,1,24,24,0.055,24.9,"CN(C)CC#Cc1cccc(-c2nc(C(=O)NCc3ccc4c(c3)OCO4)cc3c2[C@@H](CCO)N([S@+]([O-])C(C)(C)C)C3)c1 [compound 21, (R)-N-(Benzo[d][1,3]dioxol-5-ylmethyl)-2-((R)-tert-butylsulfinyl)-4-(3-(3-(dimethyl-amino)prop-1-yn-1-yl)phenyl)-3-(2-hydroxyethyl)-2,3-dihydro-1H-pyrrolo[3,4-c]pyridine-6-carboxamide]",63.7,44.7,24.4
47,11.1,6.8,6.3,5.2,1.7,4.3,0.25,1,24,24,5.75,13.2,"CN(C)CC#Cc1cccc(-c2nc(C(=O)N[C@@H]3CCN(Cc4ccccc4)C3)cc3c2[C@@H](CCO)N([S@+]([O-])C(C)(C)C)C3)c1 [compound 37, (R)-N-((R)-1-Benzylpyrrolidin-3-yl)-2-((R)-tert-butylsulfinyl)-4-(3-(3-(dimethylamino)prop-1-yn-1-yl)phenyl)-3-(2-hydroxyethyl)-2,3-dihydro-1H-pyrrolo[3,4-c]pyridine-6-carboxamide]",64.2,54.1,13.4

# Reference: patent publication US12071436B2, “Anti-parasitic compounds and uses thereof” (Memorial Sloan-Kettering Cancer Center, priority 2016, dated 2024)
